Test results from patent publication US7081524B2, “O2-substituted 1-[(2-carboxylato)pyrrolidin-1-yl]diazen-1-ium-1,2-diolates” (The United States of America as represented by the …, priority 1996, dated 2006).
Each block holds one compound with its values, some of them ahead of it.

Experiments:
[1] = system: glutathione S-transferase (GST); details: FIG. 2
[2] = Kinetics of reaction with sodium methoxide in methanol (HPLC); assay type: physicochemical; details: reaction with excess NaOMe in methanol; disappearance monitored by HPLC
From the text: This Example illustrates the kinetics of reaction of O^2-(2,4-dinitrophenyl) 1-(N,N-diethylamino)diazen-1-ium-1,2-diolate with sodium methoxide in methanol. The kinetics of this reaction show the rate of conversion of O^2-(2,4-dinitrophenyl) 1-(N,N-diethylamino)diazen-1-ium-1,2-diolate to 1-(N,N-diethylamino)diazen-1-ium-1,2-diolate ion in alkaline or nucleophilic environments.
An excess of NaOMe was used in the reactions; aliquots were collected at intervals and quenched with 0.1 N HCl in methanol. […] This was determined by plotting log[O^2-(2,4-dinitrophenyl) 1-(N,N-diethylamino)diazen-1-ium-1,2-diolate] vs. time to find kobs′ at four different concentrations of NaOMe.

[3] = NO release in the presence or absence of glutathione, chemiluminescence; details: 37° C.
Method: This Example illustrates the regeneration of NO from O^2-(2,4-dinitrophenyl) 1-(N,N-diethylamino)diazen-1-ium-1,2-diolate in the presence, but not the absence, of glutathione.
A solution containing 1 mM glutathione (GSH) in 10 mM phosphate buffer was degassed by purging with argon for 10 min, whereupon a 3 ml aliquot was mixed with 3 μl of a dioxane solution that was 2 mM in O^2-(2,4-dinitrophenyl) 1-(N,N-diethylamino)diazen-1-ium-1,2-diolate. NO release was monitored by chemiluminescence while the mixture was held at 37° C. […] Total NO generation during the first 112 min was approximately 9 nmol. Assuming that […] of NO is generated per mol of O^2-(2,4-dinitrophenyl) 1-(N,N-diethylamino)diazen-1-ium-1,2-diolate, this 9 nmol corresponds to roughly 75% of the theoretical yield.
The nucleophilic glutathione reacted with the O^2-(2,4-dinitrophenyl) 1-(N,N-diethylamino)diazen-1-ium-1,2-diolate to produce NO according to the equation shown below.

[4] = system: glutathione S-transferase; test: Glutathione S-transferase kinetics (UV absorbance at 380 nm); assay type: biochemical; details: 25° C., 0.1 M phosphate buffer pH 7.4, enzyme 0.7 μg/ml, glutathione 1.4 mM, diazeniumdiolate 50–100 μM
From the text: The following examples further illustrate the present invention and, of course, should not be construed as in any way limiting its scope. With respect to the following examples, NO was obtained from Matheson Gas Products (Montgomeryville, Pa.), β- and α-glycosidases and porcine liver esterase were obtained from Sigma Chemical Co. (St, Louis, Mo.), polyurethane (Tecoflex) was obtained from Thermedics Inc. (Woburn, Mass.), and glucose and mannose were obtained from Aldrich Chemical Co. (Milwaukee, Wis.). Proton NMR spectra were recorded with a 300 MHz Varian Unity Plus or a Varian XL-200 NMR spectrometer. Spectra were obtained in deuterochloroform for covalent compounds and in D2O for salts. Chemical shifts are reported in parts per million (ppm) downfield from TMS. Low and high resolution mass spectral (MS) measurements were carried out on a VG-Micromass Model 7070 spectrometer. Unless otherwise indicated, MS data were collected in the electron impact mode with sample introduction via direct probe. Ultraviolet (UV) spectra were run as solutions in water or 0.01 M NaOH on an HP 8451A Diode Array spectrophotometer. Glutathione S-transferase kinetics were monitored by measuring the change in UV absorbance at 380 nm with a Beckman DU 640 spectrophotometer. Chemiluminescence measurements were done on a Thermal Energy Analyzer Model 502A instrument (Thermedics, Inc., Woburn, Mass.). […]

[5] = Cleavage of O2-glucopyranosyl diazeniumdiolate to DEA/NO anion and NO as a function of pH; assay type: physicochemical
porcine liver esterase = test: Decay in the presence of porcine liver esterase; assay type: in vitro ADME; details: 25° C., phosphate buffer pH 7.4, porcine liver esterase suspension added
Method: This example describes the determination of the halflife of the Compound produced in Example 24 in the absence and presence of porcine liver esterase at 25° C. and pH 7.4.
A 0.009 M ethanolic stock solution of O2—[S-acetyl-(2-mercaptoethyl)]1-[(2-carboxylato)pyrrolidin-1-yl]diazen-1-ium-1,2-diolate [S-acetyl-(2-mercapto-ethyl)]ester was prepared. The decay of this compound was monitored at 25° C. as 1.5×10^−4 M solutions in a 4 ml quartz cuvette containing 3 ml of phosphate buffer (pH 7.4) and […] of stock solution. The decay of the 232 nm chromophore was monitored on the ultraviolet spectrophotometer. The halflife was estimated as 3.2 hr.
A second set of experiments was carried out using the above parameters to measure the decay after addition of 5 ml of porcine liver esterase suspension. The half-life for the esterase reaction was 8 min at 25° C.

[6] = 1 mM GSH in 10 mM phosphate buffer

melting point: 250 °C (dec.)
Compound: O=C([O-])C1CCCN1[N+]([O-])=N[O-].[Na+].[Na+] (stereo not shown) [Example 19, disodium 1-[(2-carboxylato)pyrrolidin-1-yl]diazen-1-ium-1,2-diolate]

cleavage to DEA/NO anion, then to NO ([5]; pH 3): only extremely slowly | cleavage to DEA/NO anion, then to NO ([5]; pH 13): extremely rapidly
Compound: CCN(CC)[N+]([O-])=NOC1O[C@H](CO)[C@@H](O)[C@H](O)[C@H]1O (stereo partly shown) [Example 31, O^2-glucopyranosyl 1-(N,N-diethylamino)diazen-1-ium-1,2-diolate]

half-life for the esterase reaction (porcine liver esterase): 8 min
Compound: CC(=O)SCCON=[N+]([O-])N1CCCC1C(=O)OCCSC(C)=O (stereo not shown) [Example 24, O^2—[S-acetyl-(2-mercaptoethyl)]1-[(2-carboxylato)pyrrolidin-1-yl]diazen-1-ium-1,2-diolate [S-acetyl-(2-mercaptoethyl)]ester]

The next lines start with the compound.

Compound: O=[N+]([O-])c1ccc(ON=[N+]([O-])N2CCCC2)c([N+](=O)[O-])c1 [Example 8, O^2-(2,4-dinitrophenyl) 1-(pyrrolidin-1-yl)diazen-1-ium-1,2-diolate]
relative NO release rate versus time with GST [1]: catalysis of NO release

Compound: CCN(CC)[N+]([O-])=NOc1ccc([N+](=O)[O-])cc1[N+](=O)[O-] [Example 1, O^2-(2,4-dinitrophenyl) 1-(N,N-diethylamino)diazen-1-ium-1,2-diolate]
second-order rate constant [2]: 0.131 M⁻¹ s⁻¹ | time NO generation continued at readily detectable levels [3, 6]: approximately 100 minutes | time of peak nitric oxide generation after reaction was initiated [3, 6]: approximately 15 minutes | total NO generation during the first 112 min ([3]; 1 mM GSH in 10 mM phosphate buffer, 3 μl of 2 mM solution in 3 ml): approximately 9 nmol | NO generated as share of the theoretical yield ([3]; 1 mM GSH, first 112 min): roughly 75% | NO generation with exclusion of the GSH ([3]; 10 mM phosphate buffer, no GSH): no NO generation was observed | Km [4]: 46.3 µM | Vmax [4]: 0.89 µM/min
